SMILES strings stand for the structures.

A short description of this assay: Binding potency against Platelet activating factor (PAF) receptor using [3H]C18-PAF as radioligand on rabbit platelet membranes.

Broadly, the Ki is a dissociation constant, usually derived from enzyme kinetics or from competition with a known ligand. Consider `Cc1nc2cnccc2n1Cc1ccc(C(=O)c2cn(C(=O)N(C)C)c3cccc(OC(=O)N(C)C)c23)cc1` [Dimethyl-carbamic acid 1-dimethylcarbamoyl-3-[4-(2-methyl-imidazo[4,5-c]pyridin-1-ylmethyl)-benzoyl]-1H-indol-4-yl ester], for which the inhibition constant (Ki) was 3.6 nM.
For the compound `Cc1nc2ccncc2n1Cc1ccc(C(=O)c2cn(C(=O)N(C)C)c3cc(-c4ccc(F)cc4)ccc23)cc1` [6-(4-Fluoro-phenyl)-3-[4-(2-methyl-imidazo[4,5-c]pyridin-3-ylmethyl)-benzoyl]-indole-1-carboxylic acid dimethylamide], the Ki came to 610 nM.
As to `Cc1[nH]c2ccccc2c1C(=O)c1ccc(Cn2c(C)nc3cnccc32)cc1` [[4-(2-Methyl-imidazo[4,5-c]pyridin-1-ylmethyl)-phenyl]-(2-methyl-1H-indol-3-yl)-methanone], the inhibition constant (Ki) worked out at 48 nM.
The figure for `Cc1nc2cnccc2n1Cc1ccc(C(=O)c2cn(C(=O)N(C)C)c3cccc(C(=O)N(C)C)c23)cc1` [3-[4-(2-Methyl-imidazo[4,5-c]pyridin-1-ylmethyl)-benzoyl]-indole-1,4-dicarboxylic acid bis-dimethylamide] is 11 nM; for `COC(=O)c1cccc2c1c(C(=O)c1ccc(Cn3c(C)nc4ccccc43)cc1)cn2C(=O)N(C)C` [1-Dimethylcarbamoyl-3-[4-(2-methyl-benzoimidazol-1-ylmethyl)-benzoyl]-1H-indole-4-carboxylic acid methyl ester] it is 0.92 nM; for `COC(=O)c1cccc2c1c(C(=O)c1ccc(Cn3c(C)nc4cnccc43)cc1)cn2C(=O)N1CCCC1` [3-[4-(2-Methyl-imidazo[4,5-c]pyridin-1-ylmethyl)-benzoyl]-1-(pyrrolidine-1-carbonyl)-1H-indole-4-carboxylic acid methyl ester] it is 11 nM.
`COC(=O)c1cccc2c1c(C(=O)c1ccc(Cn3c(C)nc4c(=O)[nH]ccc43)cc1)cn2C(=O)N(C)C` [1-Dimethylcarbamoyl-3-[4-(2-methyl-4-oxo-4,5-dihydro-imidazo[4,5-c]pyridin-1-ylmethyl)-benzoyl]-1H-indole-4-carboxylic acid methyl ester] returned an inhibitory constant (Ki) of 4 nM.
Then `Cc1nc2cnccc2n1Cc1ccc(C(=O)c2cn(C(=O)N(C)C)c3cccc(Cl)c23)cc1` [4-Chloro-3-[4-(2-methyl-imidazo[4,5-c]pyridin-1-ylmethyl)-benzoyl]-indole-1-carboxylic acid dimethylamide], with 5.4 nM.
The figure for `COC(=O)c1cccc2c1c(C(=O)c1ccc(Cn3c(C)nc4ccccc43)cc1)cn2C(=O)N1CCCC1` [3-[4-(2-Methyl-benzoimidazol-1-ylmethyl)-benzoyl]-1-(pyrrolidine-1-carbonyl)-1H-indole-4-carboxylic acid methyl ester] is 1.7 nM; for `COC(=O)c1cccc2c1c(C(=O)CCCCCCn1c(C)nc3cnccc31)cn2C(=O)N(C)C` [1-Dimethylcarbamoyl-3-[7-(2-methyl-imidazo[4,5-c]pyridin-1-yl)-heptanoyl]-1H-indole-4-carboxylic acid methyl ester] it is 9.4 nM; for `Cc1nc2cnccc2n1CC1CCN(C(=O)c2cn(C(=O)N(C)C)c3cc(-c4ccc(F)cc4)ccc23)CC1` [6-(4-Fluoro-phenyl)-3-[4-(2-methyl-imidazo[4,5-c]pyridin-1-ylmethyl)-piperidine-1-carbonyl]-indole-1-carboxylic acid dimethylamide] it is 2.5 nM.
Then `COC(=O)c1cccc2c1c(C(=O)c1ccc(Cn3c(C)nc4c(Cl)nccc43)cc1)cn2C(=O)N(C)C` [3-[4-(4-Chloro-2-methyl-imidazo[4,5-c]pyridin-1-ylmethyl)-benzoyl]-1-dimethylcarbamoyl-1H-indole-4-carboxylic acid methyl ester], with 1.8 nM; and `COC(=O)c1cccc2c1c(C(=O)c1ccc(Cn3c(C)nc4cnccc43)cc1)cn2S(=O)(=O)N(C)C` [1-Dimethylsulfamoyl-3-[4-(2-methyl-imidazo[4,5-c]pyridin-1-ylmethyl)-benzoyl]-1H-indole-4-carboxylic acid methyl ester], with 4.3 nM.

Source of the values: BindingDB's records for doi:10.1021/jm970389+ (Abbott Laboratories, 1998).
